This is an account of results in patent US20040010036A1, “N,N, -Substituted s-Aryl-Isothioureas, N,N,N, -Substituted s-Aryl-Isothioureas and combinatorial libraries thereof” (priority 2002, published 2004).

What is called inhibition of growth is the relative decrease from the control value, in per cent. A lower inhibition of growth goes with little suppression.

This assay concerns Streptococcus pyogenes (ATCC# 97-03 14289). In words: Anti-microbial screen (percent inhibition of growth, OD 570 nm). As to conditions: Conc 0.1776 mg ml. The format is cell-based. As to the method:
Streptococcus pyogenes (ATCC# 97-03 14289) was grown in Todd Hewitt Broth (THB) (Difco Laboratories #0492-17-6) overnight until reaching an optical density of (OD=0.636@570 nm) by reading 0.1 ml in a 96 well microtiter plate in a Molecular Devices Thermomax. This preparation was kept frozen as stocks in 30% v/v glycerol in 1.5 ml aliquots at […] until use. Prior to experiments, 6 ml aliquots were thawed and diluted into 50 ml 2×THB. 60 ul of this dilution was added to 92 wells of microtiter plate. To three wells THB (200 ul) was added to serve as a blank and a sterility control. Test compounds in DMSO and appropriate concentrations of DMSO were added to Growth/Solvent Controls at 0 time. Plates were read at 0 time at 570 nm in the Molecular Devices plate reader to obtain compounds correction factors for insoluble or colored compounds. Plates were read again at 4 hours.
Percent inhibition is calculated with the following formula:
Color correct=O.D. 0 hr - Blank 0 hr)-(Solvent Control Ohr - Blank 0 hr) [formula]

Where [1] appears, read: Spy4H: Streptococcus pyogenes, read at 4 hours, OD 570 nm.
Setting [2] is: Streptococcus pyogenes, Assay Spy4H, plates read at 570 nm at 0 time and at 4 hours.

The structures appear in SMILES notation.

`COc1cccc(CN(Cc2cccc(O)c2)/C(=N/c2ccc(Cl)c(Cl)c2)Sc2cccc(OC)c2)c1` [Cmpd 328] registered an inhibition of growth at 177.6 µg/mL under setting [1] of 98.9%.

On to `COc1cccc(CN(Cc2cccc(O)c2)/C(=N/c2cc(Cl)cc(Cl)c2)Sc2cccc(OC)c2)c1` [Cmpd 333], for which at 177.6 µg/mL the inhibition of growth under setting [1] was 67.2%.

As for `COc1cccc(CN(Cc2cccc(O)c2)/C(=N/c2ccc(F)c(Cl)c2)Sc2cccc(OC)c2)c1` [Cmpd 334], the inhibition of growth at 177.6 µg/mL under setting [2] was found to be 50.6%.

Take `COc1cccc(CN(Cc2cccc(O)c2)/C(=N/c2ccc(Cl)c([N+](=O)[O-])c2)Sc2cccc(OC)c2)c1` [Cmpd 343]: the inhibition of growth at 177.6 µg/mL under setting [2] worked out at 52.7%.

`COc1cccc(CN(Cc2cccc(O)c2)/C(=N\c2ccc(Cl)c(C(F)(F)F)c2)Sc2cccc(OC)c2)c1` [Cmpd 353] came in with an inhibition of growth at 177.6 µg/mL under setting [1] of 59.1%.

In the case of `COc1cccc(S/C(=N\Cc2cccc(C)c2)N(CCc2ccc(Cl)cc2)Cc2ccc(O)cc2)c1` [Cmpd 362], at 177.6 µg/mL the inhibition of growth under setting [2] was 50.9%.

Under setting [2], `COc1cccc(S/C(=N\c2cccc(F)c2)N(CCc2ccc(Cl)cc2)Cc2ccc(O)cc2)c1` [Cmpd 363] showed an inhibition of growth at 177.6 µg/mL of 50.3%.

The molecule `COc1cccc(S/C(=N\Cc2ccc(F)cc2)N(CCc2ccc(Cl)cc2)Cc2ccc(O)cc2)c1` [Cmpd 364] returned an inhibition of growth at 177.6 µg/mL under setting [1] of 66.9%.

`COc1cccc(S/C(=N\c2cccc(C(F)(F)F)c2)N(CCc2ccc(Cl)cc2)Cc2ccc(O)cc2)c1` [Cmpd 366] showed an inhibition of growth at 177.6 µg/mL under setting [2] of 49.1%.

As to `COc1cccc(S/C(=N\c2ccc(C(F)(F)F)cc2)N(CCc2ccc(Cl)cc2)Cc2ccc(O)cc2)c1` [Cmpd 367], testing at 177.6 µg/mL under setting [1] gave an inhibition of growth of 70.5%.

Under setting [1], `COc1cccc(S/C(=N\c2cc(Cl)cc(Cl)c2)N(CCc2ccc(Cl)cc2)Cc2ccc(O)cc2)c1` [Cmpd 373] registered an inhibition of growth at 177.6 µg/mL of 75%.

In the case of `COc1cccc(S/C(=N\c2ccc(Cl)c([N+](=O)[O-])c2)N(CCc2ccc(Cl)cc2)Cc2ccc(O)cc2)c1` [Cmpd 383], 177.6 µg/mL produced 56.7% inhibition of growth under setting [2].

The molecule `COc1cccc(S/C(=N/c2ccc(Cl)c(C(F)(F)F)c2)N(CCc2ccc(Cl)cc2)Cc2ccc(O)cc2)c1` [Cmpd 393] gave an inhibition of growth at 177.6 µg/mL under setting [2] of 54.5%.

`COc1cccc(S/C(=N\c2ccc(F)c(F)c2)N(CCc2ccc(Cl)cc2)Cc2ccc(O)cc2)c1` [Cmpd 396] displayed an inhibition of growth at 177.6 µg/mL under setting [2] of 54.2%.

`Cc1ccc(CN(Cc2cccc(O)c2)/C(=N/c2ccc(C(F)(F)F)cc2)Sc2ccc(C)cc2)cc1` [Cmpd 407]: 177.6 µg/mL produced 71.7% inhibition of growth under setting [1].

Regarding `Cc1ccc(CN(Cc2cccc(O)c2)/C(=N/c2cc(Cl)cc(Cl)c2)Sc2ccc(C)cc2)cc1` [Cmpd 413], under setting [1], at 177.6 µg/mL the inhibition of growth was 57.6%.

The molecule `Cc1ccc(CN(Cc2cccc(O)c2)/C(=N/c2ccc(F)c(Cl)c2)Sc2ccc(C)cc2)cc1` [Cmpd 414] gave an inhibition of growth at 177.6 µg/mL under setting [2] of 49.1%.

`Cc1ccc(CN(Cc2cccc(O)c2)/C(=N/c2ccc(Cl)c([N+](=O)[O-])c2)Sc2ccc(C)cc2)cc1` [Cmpd 423]: the inhibition of growth at 177.6 µg/mL under setting [2] was 57.3%.

For the molecule `Cc1ccc(CN(Cc2cccc(O)c2)/C(=N/c2ccccc2[N+](=O)[O-])Sc2ccc(C)cc2)cc1` [Cmpd 426], under setting [1], the inhibition of growth at 177.6 µg/mL worked out at 67.4%.

Regarding `COc1ccc(C)cc1/N=C(\Sc1ccc(C)cc1)N(Cc1ccc(C)cc1)Cc1cccc(O)c1` [Cmpd 429], under setting [1], 177.6 µg/mL produced 79.5% inhibition of growth.

`Cc1ccc(CN(Cc2cccc(O)c2)/C(=N\c2ccc(Cl)c(C(F)(F)F)c2)Sc2ccc(C)cc2)cc1` [Cmpd 433] returned an inhibition of growth at 177.6 µg/mL under setting [2] of 51.7%.

Molecule `Cc1ccc(CN(Cc2cccc(O)c2)/C(=N/Cc2ccc(F)cc2)Sc2cccc(C)c2)cc1` [Cmpd 444] registered an inhibition of growth at 177.6 µg/mL under setting [2] of 56.6%.

`Cc1ccc(CN(Cc2cccc(O)c2)/C(=N/c2ccc(C(F)(F)F)cc2)Sc2cccc(C)c2)cc1` [Cmpd 447] came in with an inhibition of growth at 177.6 µg/mL under setting [1] of 99.5%.

`Cc1ccc(CN(Cc2cccc(O)c2)/C(=N/c2cc(Cl)cc(Cl)c2)Sc2cccc(C)c2)cc1` [Cmpd 453] returned an inhibition of growth at 177.6 µg/mL under setting [1] of 60.5%.
